Measurements from article PMC5694528, “Human mass balance study and metabolite profiling of ^14C-niraparib, a novel poly(ADP-Ribose) polymerase (PARP)-1 and PARP-2 inhibitor, in patients with advanced cancer” (Investigational New Drugs, 2017).
Where two headings read alike, the source gives them in different places. Blank lines part the entries; values can stand above or below the molecule they belong to.

What was measured:
[1] = Metabolite profiling in plasma, urine and faeces by LC-LSC-MSn; assay type: in vivo, human; settings: for Amount excreted in urine (0–144 h) / Amount excreted total, urine and faeces (0–144 h) / Amount excreted in faeces (0–144 h): % of administered dose; for Plasma exposure: relative AUC0-168h (% of AUC0-168h from total 14C): 0-168 h
Procedure: Metabolite profiling was divided into two parts: metabolite screening and identification, and metabolite quantification. During the first part, inter-patient pooled samples were analysed to screen for the presence of metabolites. Afterwards, individual patient samples or within-patient pooled samples (depending on the matrix) were analysed and metabolites found during the screening phase were quantified. Plasma, urine and faeces samples were selected both for screening and quantification. Three time points were selected for screening of plasma samples. Besides the pre-dose, a sample around the tmax was chosen, because these samples contained the highest amount of radioactivity. It was also of interest to select a sample in which the amount of radioactivity was much higher than the amount of parent compound, because this is indicative of the presence of metabolites. Consequently, 4 h and 48 h were selected and screened for metabolites. Individual patient samples from 0 […] and 168 h were analysed and metabolites in these samples were quantified. All urine samples were pooled within patients, and afterwards these samples were pooled between patients. […] The same procedure was applied for faeces samples. Again, 24 h-interval pools were made, first within patients and then between patients. The latter were used for metabolite screening, whereas the first were analysed afterwards, during the quantification step. […] Plasma samples (pre-dose, 4 h and 48 h) were pooled by equal volumes. In addition, the individual samples (pre-dose, 4 h, 12 h, 24 h, 48 h, 72 h and 168 h) were analysed. Plasma samples were extracted once with acetonitrile-methanol (50:50, v/v). […] An aliquot of the clear supernatant was analysed for total radioactivity to determine extraction efficiency. The remaining supernatant was used for analysis by LC-MS^n in combination with off-line LSC (LC-LSC-MS^n). Urine samples were first pooled within patients. […] These samples were analysed without pre-treatment. […] Faeces homogenate samples were extracted once with 0.1% formic acid in acetonitrile. […] An aliquot of the clear supernatant was analysed for total radioactivity to determine extraction recovery. The remaining supernatant was used for LC-LSC-MS^n analysis. Samples were analysed by LC (Shimadzu, Kyoto, Japan) coupled to a linear ion trap mass spectrometer (Thermo Electron, Waltham, MA, USA) in combination with off-line LSC (LC-Linear Ion Trap LTQ XL Mass Spectrometry (MS)-LSC). To separate known and unknown metabolites, an HPLC gradient was applied. A flow rate of 1 mL/min was maintained during the following 50-min gradient: starting at 10%B and increasing to 36.25%B over 35 min, then to 90%B in 12 min. This was held for 2 min and then it was reverted back to the initial conditions of 10%B at 49 min. Mobile phase A consisted of 20 mM ammonium acetate in water and mobile phase B consisted of 0.1% formic acid in acetonitrile. Structural information on niraparib metabolites was obtained using Data Dependent Acquisition. Accurate mass measurements were performed to confirm the chemical structures of the metabolites. These measurements were performed on an Ultimate 3000 LC (Dionex) coupled to an LTQ Orbitrap XL MS (Thermo Electron, Waltham). The same gradient composition was applied. […] The metabolite profiles of ^14C-niraparib-derived radioactivity were determined for selected aliquots of extracts of plasma, urine and faecal homogenates using LC-MS/MS, fractionation and off-line LSC. After pre-treatment, samples were injected onto a Phenomenex Synergi Hydro-RP (250 × 4.6 mm, 4 μm) column. Data Dependent Acquisition was applied, causing the detection and fragmentation of the most abundant ions. Besides this, a parent list with possible metabolites was constructed, meaning that apart from the most abundant ions, also the ones with the masses in this parent list were further fragmentised for which MS^2 and MS^3 spectra were obtained. […]

[2] = Plasma pharmacokinetics of niraparib and M1 by validated LC-MS/MS after a single oral 300 mg dose of 14C-niraparib; assay type: in vivo; settings: human; for AUC(0-inf): read-out: AUC0-inf (mean); for AUC(0-t): read-out: AUC0-last (mean); for half-life: read-out: t1/2 (mean) (converted); for Tmax: read-out: tmax (median)
Procedure: Dose reductions were allowed twice. […] All patients provided written informed consent. Blood sampling was done at the following time points: pre-dose, 1, 1.5, 2, 3, 4, 6, 9 and 12 hours (h) after administration and in the morning of Day 2, 3, 4, 5, 8, 11, 15 and 22. For each time point, a 10 mL K2EDTA blood collection tube was used (Vacutainer®, Becton, Dickinson and Company, Franklin Lakes, NJ, USA) and blood was drawn via a peripheral line. […] Separate aliquots were made for radioactivity measurements as well as LC-MS/MS and metabolite profiling experiments. All samples were stored at −80 °C. […] Gradient elution was applied using 20 mM ammonium acetate in water (mobile phase A) and 0.1% formic acid in acetonitrile-methanol (50:50, v/v; mobile phase B). […] Quality control samples were prepared and analysed together with the study samples. […] Analysis was done by a non-compartmental method using WinNonlin Phoenix Version 6.2.1 or higher (Pharsight Corporation, St. Louis, Missouri, USA).

[3] = tested on: recurrent, platinum sensitive, ovarian, fallopian tube, or primary peritoneal cancer; settings: adult patients in complete or partial response to platinum-based chemotherapy; cited from earlier work
[4] = population pharmacokinetic analysis, all the patients in NOVA study; cited from earlier work
[5] = Safety assessment (NCI CTCAE) in the mass balance study
Excerpt: The National Cancer Institute Common Terminology Criteria for Adverse Events (NCI CTCAE) grading system was used to describe the severity of the adverse events (AEs) that occurred. Haematology, blood chemistry and vital signs were also part of the safety assessment.

[6] = daily dose of 300 mg; cited from earlier work
[7] = Procedure: Six evaluable patients were enrolled in this open-label mass balance clinical study (ClinicalTrials.gov identifier NCT02476552) and were admitted to the study center for at least 10 days, with the 11th day being optional. […] From the moment of administration, all urine and faeces were collected. […] Dose reductions were allowed twice. The study was conducted in conformance with the International Conference on Harmonisation (ICH) guidelines for Good Clinical Practice (GCP) and in accordance with the Declaration of Helsinki. The protocol was approved by the Netherlands Cancer Institute Independent Ethics Committee. All patients provided written informed consent.
For the purpose of the mass balance study and metabolite profiling, urine and faecal samples were collected. Urine was collected at pre-determined intervals: pre-dose, 0–12 h, 12–24 h, 24–36 h and 36–48 h after administration. From Day 3 onwards, urine was collected over periods of 24 h. Urine was stored in polyethylene containers at 2–8 °C for the duration of the collection period. After each collection period, urine samples were mixed thoroughly, weighed, portioned into aliquots, and then frozen at ≤ − 70 °C. Separate aliquots were made in polypropylene tubes for analysis by LC-MS/MS, metabolite profiling and TRA analysis by LSC.
Faeces were collected and weighted per stool. Sample pre-treatment involved diluting and homogenising the faeces by adding water (1:3 w/v; B. Braun). A T25 basic Ultra Turrax (IKA Works, Staufen, Germany) was used to homogenise the samples before aliquoting. Urine and faeces sample collection occurred according to the following requirements: • If the total radioactivity in the Day 14 faecal/urine sample is detected to be higher than 0.1% and the total recovery of accumulative radioactivity ≤85% (faeces and urine) of the radioactivity of the dose given, faecal/urine samples will be collected every 24 h through Day 21. • If the total radioactivity in the Day 21 faecal/urine sample is detected to be higher than 0.1% and the total recovery of accumulative radioactivity ≤85% (faeces and urine), faecal/urine samples will continue to be collected every 24 h. • Faecal/urine sample collection will stop after Day 21, if the recovered radioactivity is below 1% (per 24 h) for the two consecutive days prior to Day 21 (Day 19 and Day 20). If this is not the case, collection will stop as soon as the recovered radioactivity is below 1% (per 24 h) for two consecutive days after Day 21.
TRA analysis was performed on a Liquid Scintillation Counter Tri-Carp 2910 (PerkinElmer, Groningen, The Netherlands). Aliquots of 200 μL of whole blood, plasma and faeces (all in duplicate), and 1 mL of urine (in singular) were transferred to scintillation vials. Whole blood and faecal samples needed to be moderately translucent and colourless. Therefore, 2-propanol (1 mL) was added to faecal samples to dissolve fibres, NaEDTA (0.1 mL) was added to whole blood to reduce foaming, and Solvable™ (1 mL) was added to both matrices to solubilise tissue. Hydrogen peroxide 30% (0.4 mL to faeces and 0.5 mL to whole blood) was added to reduce colour intensity. These samples were placed in a water bath (at least 40 °C; GF1086, Salm en Kipp, Breukelen, The Netherlands) to stimulate the chemical processes. Finally, 10 mL of Ultima Gold™ Cocktail (PerkinElmer) was added and the samples were analysed, either for 60 min or until the 2-sigma error was less than or equal to 5%, whichever came first. A scintillant blank was used to provide as a background sample.

[8] = plasma, single oral dose 300 mg 14C-niraparib, n = 6
[9] = % of administered dose, up to 144 h
[10] = % of administered radioactive dose, through 504 h post-dose

Amount excreted in urine (0–144 h) [1]: 20.0%
Amount excreted total, urine and faeces (0–144 h) [1]: 22.4%
Amount excreted in faeces (0–144 h) ([1]; listed as M1 (4)): 2.4%
Amount excreted in urine (0–144 h) ([1]; listed as M1 (4)): 20%
Plasma exposure: relative AUC0-168h (% of AUC0-168h from total 14C) ([1]; listed as M1 (4)): 9.3%
Cmax [2, 8]: 476 ng/mL
AUC(0-inf) [2, 8]: 41200 ng·h/mL
AUC(0-t) [2, 8]: 40800 ng·h/mL
half-life [2, 8]: 78.4 h
Tmax [2, 8]: 9.02 h
Molecule: O=C(O)c1cccc2cn(-c3ccc([C@@H]4CCCNC4)cc3)nc12 [Compound M1, Amide hydrolysed niraparib]

Amount excreted in urine (0–144 h) [1]: not detected
Plasma exposure: relative AUC0-168h (% of AUC0-168h from total 14C) [1]: 2.5%
Molecule: COC(=O)c1cccc2cn(-c3ccc([C@@H]4CCCNC4)cc3)nc12 [Methylated M1 (7), Methylated M1]

Molecule: NC(=O)c1cccc2cn(-c3ccc([C@@H]4CCCNC4)cc3)nc12 [niraparib, 2-{4-[(3S)-piperidin-3-yl]phenyl}-2H-indazole-7-carboxamide]
Amount excreted in faeces (0–144 h) ([1]; listed as Niraparib (5)): 18.7%
Amount excreted in urine (0–144 h) ([1]; listed as Niraparib (5)): 10.5%
Amount excreted total, urine and faeces (0–144 h) ([1]; listed as Niraparib (5)): 29.2%
Amount excreted in faeces (0–144 h) ([1]; listed as niraparib (5)): 18.7%
Amount excreted in urine (0–144 h) ([1]; listed as niraparib (5)): 10.5%
progression-free survival (PFS) [3]: met its primary endpoint of improving progression-free survival
Vd/F ([2]; in vivo, oral, cancer patients, across the clinical studies, read-out: apparent Vd/F, collective conclusion): ≥ 1000 L
Cmax [2, 8]: 540 ng/mL
AUC(0-inf) [2, 8]: 18500 ng·h/mL
AUC(0-t) [2, 8]: 18400 ng·h/mL
Vd/F ([2]; plasma, single oral dose 300 mg 14C-niraparib, n = 6, read-out: Vd/F (mean)): 2170 L
half-life [2, 8]: 87.4 h
Tmax [2, 8]: 2.49 h
apparent Vd/F [4]: 1074 L
Grade of AEs considered likely to be related to study treatment ([5]; NCI CTCAE): ≤ 2 grade
TEAEs leading to study drug discontinuation or death ([5]; six patients): no TEAEs led to study drug discontinuation or death
Total number of adverse events reported ([5]; six patients, single oral dose 300 mg): 21
tolerability [6]: well tolerated
Total radioactivity recovered in excreta (urine and faeces) [7, 9]: 71.6%
Total radioactivity recovered in faeces [7, 9]: 31.6%
Total radioactivity recovered in urine [7, 9]: 40%
Mean total radioactivity recovered in excreta (urine and faeces) [7, 10]: 86.3%
Mean total radioactivity recovered in faeces [7, 10]: 38.8%
Mean total radioactivity recovered in urine [7, 10]: 47.5%
Administered dose recovered in excreta ([7]; within the first 4 days (96 h) after dosing): over 50%

Amount excreted in urine (0–144 h) [1]: 6.2%
Plasma exposure: relative AUC0-168h (% of AUC0-168h from total 14C) [1]: 55.7%
Molecule: M1-glucuronide [Compound M10]

Amount excreted in urine (0–144 h) [1]: <LLOQ
Plasma exposure: relative AUC0-168h (% of AUC0-168h from total 14C) [1]: 6.0%
Molecule: M1-glucuronide [M10 (1)]

Amount excreted in urine (0–144 h) [1]: 6.2%
Amount excreted total, urine and faeces (0–144 h) [1]: 6.2%
Plasma exposure: relative AUC0-168h (% of AUC0-168h from total 14C) [1]: 26.8%
Molecule: M1-glucuronide [M10 (2)]

Amount excreted in urine (0–144 h) [1]: <LLOQ
Plasma exposure: relative AUC0-168h (% of AUC0-168h from total 14C) [1]: 22.9%
Molecule: M1-glucuronide [M10 (3)]
